Patent US20220160686A1, “MACROCYCLIC AZOLOPYRIDINE DERIVATIVES AS EED AND PRC2 MODULATORS” (Fulcrum Therapeutics, Inc., priority 2019, published 2022)
Like-named read-outs stand apart in the source and are kept apart here.

Test system: human P-glycoprotein HEK cells (HEK-P-gp)
Assay: H3K27me3 immunocytochemistry assay in P-gp expressing HEK293T cells, with or without elacridar
Format: cell-based
Method: A plasmid encoding the human ABCB1 gene under the control of a CMV promoter was purchased from Origene (Cat #RC216080). The HEK293T cells were purchased from ATCC (Cat #CRL-3216) and were cultured for expansion in the recommended conditions. The HEK293T cells were transfected with 2 ug of the pCMV-ABCB1 plasmid using Lipofectamine 3000 following recommendations from the manufacturer (ThermoFisher Scientific, Cat #L3000008). After 24 h, cells were dissociated, and 5000 cells were seeded on a 10 cm tissue culture dish. On the next day, fresh media containing 5 nM Vinblastine (Sigma, Cat #V1377) was added, and media containing compound was replenished every 72 h. After surviving cells reached confluency, cells were passaged, and lines were maintained in the presence of 2.5 nM Vinblastine until further characterization.
P-gp expressing HEK293T, HUDEP2, and Human Mobilized Peripheral Blood Primary CD34+ cells were cultured for use in an H3K27me3 immunocytochemistry assay. HUDEP2 and Human Mobilized Peripheral Blood Primary CD34+ cells were cultured for use in an HbF immunocytochemistry assay. P-gp expressing HEK293T cells were maintained and passaged every 3-4 days by plating 300,000 viable cells in a T-25 culture flask containing 6 mLs of 293 Passaging Media comprised of DMEM (ThermoFisher #10566016), 10% fetal bovine serum (ThermoFisher #A3160502), 1% penicillin-streptomycin (ThermoFisher #15140122), and 2.5 nM Vinblastine (Sigma #V1377). To evaluate the inhibitory effect of the compounds of the present disclosure and their brain penetrant properties via P-gp mediated efflux, the H3K27me3 immunocytochemistry assay was conducted in the presence or absence of 250 nM of the P-gp inhibitor, elacridar. Poor brain penetrant compounds were expected to show higher potencies in the presence of Elacridar. However, brain penetrant compounds would show similar potencies irrespective of whether Elacridar is present or not. In these experiments plates without elacridar were seeded with P-gp expressing HEK293T cells at 1000 viable cells per well in a poly-d-lysine coated 384-well plate (Corning Cat #356697) in 45 μL of 293 Assay Media comprised of DMEM (ThermoFisher #10566016), 10% fetal bovine serum (ThermoFisher #A3160502), 1% penicillin-streptomycin (ThermoFisher #15140122). A replicate set of plates were seeded under the same conditions with 45 μL of 293 Assay Media supplemented with 250 nM of Elacridar to inhibit P-gp activity. Compounds were serially diluted at 10× concentration in 293 Media, and 5 μL transferred to their respective wells on both sets of plates for a total volume of 50 μL per well. The compound treated HEK293T cells were allowed to incubate for 4 days at 37° C., 85% relative humidity, and 5% CO2 before proceeding to ICC Fix and Stain protocol.
The Fix and Stain Protocol was the same for HEK293T, HUDEP2, and Primary CD34+ cell assays except the specific primary and secondary antibodies used for detection. Following 4 days of compound treatment, the respective plates were washed once with 25 μL of PBS (ThermoFisher #10010023) and fixed with 25 μL of 4% paraformaldehyde (ThermoFisher #28908) for 10 minutes at room temperature. The plates were then washed three times with 25 μL of PBS. Subsequent to that, the cells were permeabilized and blocked for 1 hour at room temperature in 25 μL of Perm/Block buffer comprised of IX PBS, 1% bovine serum albumin (ThermoFisher #A3294), 10% fetal bovine serum (ThermoFisher #A3160502), 0.3M glycine (Sigma #G7126), and 0.1% tween-20 (Sigma #P7949). This was followed by additional washing (three times) of the plates with 25 μL of 0.1% tween in PBS.
For the H3K27me3 assay, the cells were incubated overnight at 4° C. with 25 μL of H3K27me3 Primary Antibody (Cell Signaling #9733) diluted 1:200 in 0.1% tween-20 in PBS. […]

[1] = Homo sapiens, HEK293, 96 h, without elacridar, 4 days compound treatment, read-out: IC50, inhibitory activity on human P-glycoprotein HEK cells (HEK-P-gp)
[2] = Homo sapiens, HEK293, with 250 nM elacridar, 4 days compound treatment, read-out: IC50, inhibitory activity on human P-glycoprotein HEK cells (HEK-P-gp) pretreated with elacridar

COC(=O)N1CCC(c2cc3c(n4cnnc24)NCc2c(F)cccc2COC3)CC1 [Compound 181, methyl 4-(12-fluoro-6,8,13,14-tetrahydro-[1,2,4]triazolo[4′,3′:1,6]pyrido[3,2-c]benzo[g][1,5]oxazonin-4-yl)piperidine-1-carboxylate]
IC50 [1]: > 500 nM
IC50 [2]: > 500 nM

(S)-12-fluoro-4-(2-methylpyridin-3-yl)-7a,8,13,14-tetrahydro-7H-[1,2,4]triazolo[4′,3′:1,6]pyrido[3,2-b]benzofuro[4,3-fg][1,4]oxazonine [Compound 8]
IC50: < 25 nM

Cc1nccc(-c2cc3c(n4cnnc24)NCc2c(F)ccc4c2[C@@H](CO4)CO3)c1F [Example 86, (S)-12-fluoro-4-(3-fluoro-2-methylpyridin-4-yl)-7a,8,13,14-tetrahydro-7H-[1,2,4]triazolo[4′,3′:1,6]pyrido[3,2-b]benzofuro[4,3-fg][1,4]oxazonine]
IC50: 25 to 50 nM

Cc1nc(-c2cc3c(n4cnnc24)NCc2c(F)ccc4c2[C@@H](CO4)CO3)ccc1C(F)F [Example 77, (S)-4-(5-(difluoromethyl)-6-methylpyridin-2-yl)-12-fluoro-7a,8,13,14-tetrahydro-7H-[1,2,4]triazolo[4′,3′:1,6]pyrido[3,2-b]benzofuro[4,3-fg][1,4]oxazonine]
IC50: 100 to 500 nM

COc1cc(C)c(-c2cc3c(n4cnnc24)NCc2c(F)ccc4c2[C@@H](CO4)CO3)cn1 [Example 68, (S)-12-fluoro-4-(6-methoxy-4-methylpyridin-3-yl)-7a,8,13,14-tetrahydro-7H-[1,2,4]triazolo[4′,3′:1,6]pyrido[3,2-b]benzofuro[4,3-fg][1,4]oxazonine]
IC50: 50 to 100 nM

(S)-1-(4-(12-fluoro-7a,8,13,14-tetrahydro-7H-[1,2,4]triazolo[4′,3′:1,6]pyrido[3,2-b]benzofuro[4,3-fg][1,4]oxazonin-4-yl)piperidin-1-yl)ethan-1-one [Compound 9]
IC50: > 500 nM

Cc1ncc(-c2cc3c(n4cnnc24)NCc2c(F)cccc2COC3)c(C)n1 [Compound 182, 4-(2,4-dimethylpyrimidin-5-yl)-12-fluoro-6,8,13,14-tetrahydro-[1,2,4]triazolo[4′,3′:1,6]pyrido[3,2-c]benzo[g][1,5]oxazonine]
IC50 [1]: > 500 nM
IC50 [2]: > 500 nM

Cn1cc(Cc2cc3c(n4cnnc24)NCc2c(F)cccc2COC3)cn1 [Compound 183, 12-fluoro-4-((1-methyl-1H-pyrazol-4-yl)methyl)-6,8,13,14-tetrahydro-[1,2,4]triazolo[4′,3′:1,6]pyrido[3,2-c]benzo[g][1,5]oxazonine]
IC50 [1]: > 500 nM
IC50 [2]: > 500 nM

CN(C)C(=O)c1ccc(-c2cc3c(n4cnnc24)NCc2c(F)ccc4c2[C@@H](CO4)CO3)cn1 [Example 152, (S)-5-(12-fluoro-7a,8,13,14-tetrahydro-7H-[1,2,4]triazolo[4′,3′:1,6]pyrido[3,2-b]benzofuro[4,3-fg][1,4]oxazonin-4-yl)-N,N-dimethylpicolinamide]
IC50: < 25 nM

CN(C)c1cc(-c2cc3c(n4cnnc24)NCc2c(F)ccc4c2[C@@H](CO4)CO3)n(C)n1 [Example 91, (S)-5-(12-fluoro-7a,8,13,14-tetrahydro-7H-[1,2,4]triazolo[4′,3′:1,6]pyrido[3,2-b]benzofuro[4,3-fg][1,4]oxazonin-4-yl)-N,N,1-trimethyl-1H-pyrazol-3-amine]
IC50: 100 to 500 nM

Cn1cnc(-c2cc3c(n4cnnc24)NCc2c(F)ccc4c2[C@@H](CO4)CO3)c1 [Example 94, (S)-12-fluoro-4-(1-methyl-1H-imidazol-4-yl)-7a,8,13,14-tetrahydro-7H-[1,2,4]triazolo[4′,3′:1,6]pyrido[3,2-b]benzofuro[4,3-fg][1,4]oxazonine]
IC50: 25 to 50 nM

COc1nccc(C)c1-c1cc2c(n3cnnc13)NCc1c(F)ccc3c1[C@@H](CO3)CO2 [Example 71, (S)-12-fluoro-4-(2-methoxy-4-methylpyridin-3-yl)-7a,8,13,14-tetrahydro-7H-[1,2,4]triazolo[4′,3′:1,6]pyrido[3,2-b]benzofuro[4,3-fg][1,4]oxazonine]
IC50: < 25 nM

Cc1cc(C)c(-c2cc3c(n4cnnc24)NCc2c(F)ccc4c2[C@@H](CO4)CO3)cn1 [Example 96, (S)-4-(4,6-dimethylpyridin-3-yl)-12-fluoro-7a,8,13,14-tetrahydro-7H-[1,2,4]triazolo[4′,3′:1,6]pyrido[3,2-b]benzofuro[4,3-fg][1,4]oxazonine]
IC50: 50 to 100 nM

Cn1cc(-c2cc3c(n4cnnc24)NCc2c(F)ccc4c2[C@@H](CO4)CO3)ccc1=O [Example 69, (S)-5-(12-fluoro-7a,8,13,14-tetrahydro-7H-[1,2,4]triazolo[4′,3′:1,6]pyrido[3,2-b]benzofuro[4,3-fg][1,4]oxazonin-4-yl)-1-methylpyridin-2(1H)-one]
IC50: < 25 nM

Fc1ccc2c3c1CNc1c(cc(-c4ccnn4CC(F)(F)F)c4nncn14)OC[C@@H]3CO2 [Example 72, (S)-12-fluoro-4-(1-(2,2,2-trifluoroethyl)-1H-pyrazol-5-yl)-7a,8,13,14-tetrahydro-7H-[1,2,4]triazolo[4′,3′:1,6]pyrido[3,2-b]benzofuro[4,3-fg][1,4]oxazonine]
IC50: 50 to 100 nM
